Results from ChEMBL document CHEMBL1201862, “PubChem BioAssay data set” (2004).
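Protocol summary: plate cells (96-well), add compound at 5 concentrations, incubate 48 h, interpolate endpoints linearly. The concentration for 50% growth inhibition is given as GI50.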 The source made the active and inactive calls. Rule as the data show it: active = GI50 up to about 1.1 µM and inactive = higher. Where a SMILES comes first, the peptide text is derived from it. The star is where a group is joined. Boc = CC(C)(C)OC(=O)*

Legend:
Experiment in all cases: inhibition of tumour cell growth, NCI panel, 48 h
SW-620 = system: SW-620
SK-OV-3 = system: SK-OV-3
ACHN = system: ACHN
SF-295 = system: SF-295
Malme-3M = system: Malme-3M
OVCAR-8 = system: OVCAR-8
TK-10 = system: TK-10
NCI-H23 = system: NCI-H23
NCI-H226 = system: NCI-H226
RXF 393 = system: RXF 393
SF-539 = system: SF-539
DU-145 = system: DU-145
HT-29 = system: HT-29
SK-MEL-28 = system: SK-MEL-28
U-251 = system: U-251
HOP-92 = system: HOP-92
UACC-62 = system: UACC-62
K562 = system: K562
KM12 = system: KM12
MDA-N = system: MDA-N

SMILES | GI50 (SW-620) | GI50 (SK-OV-3) | GI50 (ACHN) | GI50 (SF-295) | GI50 (Malme-3M) | GI50 (OVCAR-8) | GI50 (TK-10) | GI50 (NCI-H23) | GI50 (NCI-H226) | GI50 (RXF 393) | GI50 (SF-539) | GI50 (DU-145) | GI50 (HT-29) | GI50 (SK-MEL-28) | GI50 (U-251) | GI50 (HOP-92) | GI50 (UACC-62) | GI50 (K562) | GI50 (KM12) | GI50 (MDA-N)
Cc1c2c(n3c(nc4ccccc43)c1C#N)N(c1ccc(F)cc1)CC2 | > 100 µM (inactive) | 74.5 µM (inactive) | > 100 µM (inactive) | > 100 µM (inactive) | > 100 µM (inactive) | > 100 µM (inactive) | > 100 µM (inactive) | > 100 µM (inactive) | > 100 µM (inactive) | > 100 µM (inactive) | > 100 µM (inactive) | > 100 µM (inactive) | > 100 µM (inactive) | > 100 µM (inactive) | > 100 µM (inactive) | > 100 µM (inactive) | > 100 µM (inactive) |  |  | 
CN(C)c1ccc(/C=N/c2nc3cc4sc(/N=C/c5ccc(N(C)C)cc5)nc4cc3s2)cc1 | 33.9 µM (inactive) | 41.8 µM (inactive) | 66.1 µM (inactive) | > 100 µM (inactive) | > 100 µM (inactive) | 76 µM (inactive) | 80.7 µM (inactive) | 28.5 µM (inactive) | 33.3 µM (inactive) |  | > 100 µM (inactive) | 8.22 µM (inactive) | 34.1 µM (inactive) | > 100 µM (inactive) | 50.5 µM (inactive) | > 100 µM (inactive) | > 100 µM (inactive) | 70.1 µM (inactive) | 46.7 µM (inactive) | 
C#CC1(O)CC(c2ccccc2)N(C)C(c2ccccc2)C1 (stereo unspecified) | > 100 µM (inactive) | > 100 µM (inactive) | > 100 µM (inactive) | > 100 µM (inactive) | > 100 µM (inactive) | > 100 µM (inactive) | > 100 µM (inactive) | > 100 µM (inactive) | > 100 µM (inactive) | > 100 µM (inactive) | > 100 µM (inactive) |  | > 100 µM (inactive) | > 100 µM (inactive) | > 100 µM (inactive) | > 100 µM (inactive) | > 100 µM (inactive) | 78.9 µM (inactive) | > 100 µM (inactive) | 
COc1ccc(OC)c(/C=C(/C#N)c2ccccc2)c1 | 6.46 µM (inactive) | 50 µM (inactive) | 49 µM (inactive) | 39.4 µM (inactive) | 35.6 µM (inactive) | 37.2 µM (inactive) | 28.4 µM (inactive) | 23.5 µM (inactive) | 26.9 µM (inactive) | 10.2 µM (inactive) | 28.2 µM (inactive) |  | 6.52 µM (inactive) | 23.4 µM (inactive) | 31.8 µM (inactive) | 17.7 µM (inactive) | 5.32 µM (inactive) | 3.15 µM (inactive) | 10 µM (inactive) | 
COc1ccc(/C=C2\N=C(c3ccccc3)OC2=O)cc1OC(C)=O | 51.4 µM (inactive) | > 100 µM (inactive) | 33.6 µM (inactive) |  | 13.5 µM (inactive) | 50.4 µM (inactive) | > 100 µM (inactive) | 65.6 µM (inactive) | > 100 µM (inactive) | > 100 µM (inactive) | > 100 µM (inactive) | > 100 µM (inactive) | 47.3 µM (inactive) | > 100 µM (inactive) | 39.8 µM (inactive) | 54.1 µM (inactive) | > 100 µM (inactive) | 44.9 µM (inactive) |  | 
Cc1cccc(NC(=S)Nc2ccc(Cl)cc2)n1 | > 100 µM (inactive) | > 100 µM (inactive) | > 100 µM (inactive) | > 100 µM (inactive) |  | > 100 µM (inactive) | > 100 µM (inactive) | > 100 µM (inactive) | > 100 µM (inactive) | > 100 µM (inactive) | > 100 µM (inactive) | > 100 µM (inactive) | > 100 µM (inactive) | > 100 µM (inactive) | > 100 µM (inactive) | > 100 µM (inactive) | > 100 µM (inactive) | > 100 µM (inactive) | 3.1 µM (inactive) | 
FC(F)(F)c1ccccc1N1CCN(c2nc(-c3cccs3)nc3ccc(Br)cc23)CC1 | 38.6 µM (inactive) | 57.3 µM (inactive) | 36.6 µM (inactive) | 30.3 µM (inactive) | 24 µM (inactive) | 66.2 µM (inactive) | 15.8 µM (inactive) | 34.4 µM (inactive) | 30.8 µM (inactive) |  | 97.3 µM (inactive) | 63.4 µM (inactive) | 29.5 µM (inactive) | 35.8 µM (inactive) | 44.4 µM (inactive) | < 0.01 µM (active) | 23 µM (inactive) | 63.1 µM (inactive) | 13.4 µM (inactive) | 
CCCCCCC(C)CC(CCCCCC)NCCOC(=O)c1ccc([N+](=O)[O-])cc1 (stereo unspecified) | 13.6 µM (inactive) | 16.3 µM (inactive) | 15.1 µM (inactive) | 11.7 µM (inactive) | 13.7 µM (inactive) | 10.2 µM (inactive) | 12 µM (inactive) | 18 µM (inactive) | 14.1 µM (inactive) |  | 15.8 µM (inactive) | 15.6 µM (inactive) | 5.43 µM (inactive) | 12.6 µM (inactive) | 13.4 µM (inactive) | 10.1 µM (inactive) | 14.5 µM (inactive) | < 0.01 µM (active) | 14.1 µM (inactive) | 
COC(=O)c1cc(S(=O)(=O)NC2=NNC(C)CN2)c(S)cc1Cl (stereo unspecified) | 42.3 µM (inactive) | > 100 µM (inactive) | > 100 µM (inactive) | 54.3 µM (inactive) | 24 µM (inactive) | 34.8 µM (inactive) | > 100 µM (inactive) | 44.8 µM (inactive) |  |  | 40.5 µM (inactive) | 78.9 µM (inactive) | 42.7 µM (inactive) | 36.7 µM (inactive) | 37.4 µM (inactive) |  | 47 µM (inactive) | 47.1 µM (inactive) | 40.4 µM (inactive) | 35.3 µM (inactive)
Cc1ccc(S(=O)(=O)OC2CSSCC2OS(=O)(=O)c2ccc(C)cc2)cc1 (stereo unspecified) | 14.4 µM (inactive) | 20.5 µM (inactive) | 15.3 µM (inactive) | 16.2 µM (inactive) | 19.2 µM (inactive) | 13.3 µM (inactive) | 15.3 µM (inactive) | 17.9 µM (inactive) | 17.9 µM (inactive) | 20.9 µM (inactive) | 10.5 µM (inactive) |  | 9.68 µM (inactive) | 16.6 µM (inactive) | 14 µM (inactive) | 11.4 µM (inactive) | 7.89 µM (inactive) | 14.9 µM (inactive) | 14.1 µM (inactive) | 
COC(=O)C(Cc1c[nH]c2ccccc12)NC(=O)C(Cc1c[nH]c2ccccc12)NC(=O)C(Cc1c[nH]c2ccccc12)NC(=O)C(Cc1c[nH]c2ccccc12)NC(=O)C(Cc1c[nH]c2ccccc12)NC(=O)C(Cc1c[nH]c2ccccc12)NC(=O)C(Cc1c[nH]c2ccccc12)NC(=O)OC(C)(C)C (stereo unspecified) (Boc-WWWWWWW-OMe; configuration not given here) | > 100 µM (inactive) |  | > 100 µM (inactive) |  | 34.5 µM (inactive) | > 100 µM (inactive) | 43.6 µM (inactive) | 64.1 µM (inactive) | 40.9 µM (inactive) |  |  | 64 µM (inactive) | > 100 µM (inactive) | 35.6 µM (inactive) | 37.4 µM (inactive) |  | 51.5 µM (inactive) | 64.1 µM (inactive) |  | 63.7 µM (inactive)
